Reference: patent publication US9346761B2, “Arginine methyltransferase inhibitors and uses thereof” (Epizyme, Inc., priority 2013, dated 2016)

What was measured:
Full-length human PRMT6 = molecular target: T1, Full-length human PRMT6 (Homo sapiens, UniProt Q96LA8); assay: PRMT6 biochemical assay (3H-SAM Flashplate, peptide substrate)
T1 construct: Flag-PRMT6-His was eluted with 200 ug/ml FLAG peptide in the same buffer; made in house; host or cells: HEK 293F cells (BacMam virus, pFastBacMam)
Procedure, shortened: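 Read-out is 3H-methylated histone H4 (36-50) peptide bound to streptavidin Flashplates after a cold-SAM stop. Baculovirus-expressed Flag-PRMT6-His met compound for 30 min at room temperature before SAM and peptide; Bicine pH 7.6 buffer. IC50 fitted to % inhibition normalized to SAH (min) and DMSO (max).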

[1] = molecular target: T2, Full-length human PRMT1 isoform 1 (Homo sapiens, UniProt Q99873); assay: PRMT1 biochemical assay (3H-SAM Flashplate, peptide substrate)
T2 construct: GST-tagged PRMT1; made in house; host or cells: High Five insect cells (baculovirus, pFastBacI)
T2 sequence (Q99873 with tags, fused parts or gaps): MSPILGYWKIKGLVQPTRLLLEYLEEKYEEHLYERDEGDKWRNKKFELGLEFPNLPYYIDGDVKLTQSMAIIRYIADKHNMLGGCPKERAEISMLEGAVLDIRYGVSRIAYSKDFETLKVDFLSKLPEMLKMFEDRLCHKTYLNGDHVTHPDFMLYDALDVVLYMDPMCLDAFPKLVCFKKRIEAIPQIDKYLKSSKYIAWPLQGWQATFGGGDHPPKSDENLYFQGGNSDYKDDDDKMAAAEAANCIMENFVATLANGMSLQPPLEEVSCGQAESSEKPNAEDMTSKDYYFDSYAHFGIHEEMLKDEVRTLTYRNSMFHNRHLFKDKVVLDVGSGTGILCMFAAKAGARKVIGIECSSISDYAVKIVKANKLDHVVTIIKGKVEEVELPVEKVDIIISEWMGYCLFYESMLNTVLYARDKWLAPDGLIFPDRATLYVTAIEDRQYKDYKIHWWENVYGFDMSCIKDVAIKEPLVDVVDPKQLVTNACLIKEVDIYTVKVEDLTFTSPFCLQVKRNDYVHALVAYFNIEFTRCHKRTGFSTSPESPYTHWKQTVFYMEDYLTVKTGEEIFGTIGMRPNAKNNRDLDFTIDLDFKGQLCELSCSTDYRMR
Procedure, shortened: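 Tritiated methyl transfer from 3H-SAM onto biotinylated peptide, captured on streptavidin Flashplates and counted. Baculovirus-expressed GST-PRMT1 and compound were preincubated 30 min at room temperature in Bicine buffer pH 7.6. Cold SAM at 300 uM final ended the reaction.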

T1 sequence (Q96LA8 with tags, fused parts or gaps): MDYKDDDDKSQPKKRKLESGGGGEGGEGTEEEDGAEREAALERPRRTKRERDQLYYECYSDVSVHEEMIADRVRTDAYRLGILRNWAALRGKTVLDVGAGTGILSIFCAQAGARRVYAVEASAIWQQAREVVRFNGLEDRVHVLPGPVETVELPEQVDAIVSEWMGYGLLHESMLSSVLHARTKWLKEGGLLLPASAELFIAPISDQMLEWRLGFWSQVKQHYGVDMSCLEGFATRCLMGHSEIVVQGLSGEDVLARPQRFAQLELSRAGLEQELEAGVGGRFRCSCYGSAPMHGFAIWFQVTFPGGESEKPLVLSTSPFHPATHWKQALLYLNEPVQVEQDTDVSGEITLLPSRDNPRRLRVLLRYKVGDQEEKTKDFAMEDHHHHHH

SMILES | IC50 (Full-length human PRMT6) [nM] | IC50 [1] [nM]
CNCCN(C)Cc1cn(C2CC2)nc1-c1ccc(F)cc1 [Compound 13] | 101 to 1000 | 1010 to 3000
CNCCN(C)Cc1cnn(C2CC2)c1-c1ccc(F)cc1 [Compound 14] | < 100 | 101 to 1000
CNCCN(C)Cc1cn(C(C)C)nc1-c1ccc(F)cc1 [Compound 15] | 101 to 1000 | 3010 to 10000
CNCCN(C)Cc1cnn(C(C)C)c1-c1ccc(F)cc1 [Compound 16] | < 100 | 1010 to 3000
CNCCN(C)Cc1cn[nH]c1-c1ccc(C#N)cc1 [Compound 17] | < 100 | < 100
CNCCN(C)Cc1cn[nH]c1-c1cc(F)cc(F)c1 [Compound 18] | < 100 | < 100
CCCc1ccc(-c2n[nH]cc2CN(C)CCNC)cc1 [Compound 20] | < 100 | < 100
CNCCN(C)Cc1c[nH]nc1-c1cccc([N+](=O)[O-])c1 [Compound 21] | < 100 | < 100
CNCCN(C)Cc1c[nH]nc1-c1cccc(C#N)c1 [Compound 22] | < 100 | 101 to 1000
CNCCN(C)Cc1c[nH]nc1-c1ccccc1OC [Compound 23] | 101 to 1000 | 101 to 1000
CNCCN(C)Cc1c[nH]nc1-c1cccc(OC)c1 [Compound 24] | < 100 | < 100
CNCCN(C)Cc1c[nH]nc1-c1ccc(OC)cc1 [Compound 25] | < 100 | < 100
CNCCN(C)Cc1c[nH]nc1-c1cccc(O)c1 [Compound 26] | < 100 | 101 to 1000
CNCCN(C)Cc1c[nH]nc1-c1ccc(O)cc1 [Compound 27] | < 100 | < 100
CNCCN(C)Cc1c[nH]nc1-c1ccc(CO)cc1 [Compound 28] | < 100 | < 100
CNCCN(C)Cc1c[nH]nc1-c1ccc(C)cc1C [Compound 29] | < 100 | 101 to 1000
CNCCN(C)Cc1cn(CCCC(O)CO)nc1-c1ccc(F)cc1 (stereo not shown) [Compound 30] | 101 to 1000 | 3010 to 10000
CNCCN(C)Cc1cnn(CCCC(O)CO)c1-c1ccc(F)cc1 (stereo not shown) [Compound 31] | 101 to 1000 | 101 to 1000
CNCCN(C)Cc1c[nH]nc1-c1ccc(N)cc1 [Compound 33] | < 100 | 101 to 1000

SMILES | IC50 (Full-length human PRMT6) [nM] | IC50 [1] [nM]
CNCCN(C)Cc1c[nH]nc1-c1ccc(Oc2ccccc2)cc1 [Compound 37] | < 100 | < 100
CNCCN(C)Cc1c[nH]nc1-c1ccccc1C(F)(F)F [Compound 38] | 101 to 1000 | 1010 to 3000
CNCCN(C)Cc1c[nH]nc1-c1ccccc1OC(F)(F)F [Compound 40] | 101 to 1000 | 101 to 1000
CCNC(=O)c1cccc(-c2n[nH]cc2CN(C)CCNC)c1 [Compound 43] | < 100 | 101 to 1000
CNCCN(C)Cc1c[nH]nc1-c1ccc(C(F)(F)F)cc1 [Compound 174] | < 100 | < 100
CC(C)CC(=O)N1CCN(c2ccc(-c3n[nH]cc3CN(C)CCN)cc2)CC1 [Compound 180] | < 100 | 101 to 1000
CNCCN(C)Cc1c[nH]nc1-c1ccc(Cl)c(F)c1 [Compound 182] | < 100 | < 100
CN(CCNC1CC1)Cc1c[nH]nc1-c1ccc(C#N)cc1 [Compound 183] | 101 to 1000 | 1010 to 3000
CN(CCN(C)C1CC1)Cc1c[nH]nc1-c1ccc(C#N)cc1 [Compound 184] | 1010 to 3000 | 1010 to 3000
CN(CCN1CCC1)Cc1c[nH]nc1-c1ccc(C#N)cc1 [Compound 185] | 101 to 1000 | 1010 to 3000
CC(C)Oc1cccc(-c2n[nH]cc2CN(C)CCN)c1 [Compound 187] | < 100 | 101 to 1000
CC(C)Oc1cc(-c2n[nH]cc2CN(C)CCN)ccc1F [Compound 188] | < 100 | 101 to 1000
CCC(=O)N1CCN(c2ccc(-c3n[nH]cc3CN(C)CCN)cc2)CC1 [Compound 189] | < 100 | 101 to 1000
CC(C)CN1C(=O)COc2ccc(-c3n[nH]cc3CN(C)CCN)cc21 [Compound 191] | 101 to 1000 | 101 to 1000
CN(CCN)Cc1c[nH]nc1-c1ccc2c(c1)OCC(=O)N2C [Compound 192] | < 100 | 101 to 1000
CC(C)CN1C(=O)COc2cc(-c3n[nH]cc3CN(C)CCN)ccc21 [Compound 193] | 101 to 1000 | < 100
CN(CCN)Cc1c[nH]nc1-c1ccc(OCCO)cc1 [Compound 194] | < 100 | < 100
CN(CCN)Cc1c[nH]nc1-c1ccc(OCCCO)cc1 [Compound 195] | < 100 | < 100
CN(CCN)Cc1c[nH]nc1-c1ccc2c(c1)N(C)C(=O)CO2 [Compound 196] | < 100 | 101 to 1000

SMILES | IC50 (Full-length human PRMT6) [nM] | IC50 [1] [nM]
CCNC(=O)c1cccc(-c2n[nH]cc2CN(C)CCN)c1 [Compound 197] | < 100 | 101 to 1000
CCN(C)C(=O)c1cccc(-c2n[nH]cc2CN(C)CCN)c1 [Compound 198] | 101 to 1000 | 1010 to 3000
Cc1cc(-c2n[nH]cc2CN(C)CCN)cc(C)c1OC(C)C [Compound 199, N^1-((3-(4-isopropoxy-3,5-dimethylphenyl)-1H-pyrazol-4-yl)methyl)-N^1-methylethane-1,2-diamine] | 101 to 1000 | < 100
CN(CCN)Cc1c[nH]nc1-c1ccc(Oc2ccccc2)c(C#N)c1 [Compound 202] | < 100 | < 100
CN(CCN)Cc1n[nH]cc1-c1ccc(Oc2ccccc2)cc1 [Compound 203] | < 100 | < 100
CNCCN(C)Cc1n[nH]cc1-c1ccc(Oc2ccccc2)cc1 [Compound 204] | < 100 | < 100
CN(CCN)Cc1c[nH]nc1-c1ccc(Oc2cccc(F)c2)cc1 [Compound 205] | < 100 | < 100
CNCCN(C)Cc1cn(C)nc1-c1ccc(OC(C)C)c(Cl)c1 [Compound 206] | < 100 | < 100
CNCCN(C)Cc1cn(C)nc1-c1ccc(Oc2ccccc2)cc1 [Compound 207] | < 100 | < 100
CNCCN(C)Cc1cnn(C)c1-c1ccc(Oc2ccccc2)cc1 [Compound 208] | < 100 | < 100
CNCCN(C)Cc1c[nH]nc1-c1ccc(OCCCOC)cc1 [Compound 209] | < 100 | < 100
CNCCN(C)Cc1n[nH]cc1-c1ccc(OC(C)C)c(F)c1 [Compound 210] | < 100 | < 100
CC(C)Oc1ccc(-c2c[nH]nc2CN(C)CCN)cc1Cl [Compound 211] | < 100 | < 100
CNCCN(C)Cc1n[nH]cc1-c1ccc(OC(C)C)c(Cl)c1 [Compound 212] | < 100 | < 100
CCn1cc(CN(C)CCNC)c(-c2ccc(OC(C)C)cc2)n1 [Compound 213] | < 100 | < 100
CNCCN(C)Cc1cn(C2CCCC2)nc1-c1ccc(OC(C)C)cc1 [Compound 214] | 101 to 1000 | < 100
CNCCN(C)Cc1cn(C2CCOC2)nc1-c1ccc(OC(C)C)cc1 (stereo not shown) [Compound 215] | 101 to 1000 | < 100
CNCCN(C)Cc1cnn(C2CCOC2)c1-c1ccc(OC(C)C)cc1 (stereo not shown) [Compound 216] | < 100 | < 100
